Molecules are shown by their SMILES. Starred links: 1 amine or outer side, 2 acyl side, 3 side chain; linkers in the order of their positions; H or OH if unused. Non-standard residues stand in square brackets, D forms with d. Residues, ends and D or L forms follow the SMILES beside them. *: point of attachment. Acetyl(1-naphthyl) = O=C(Cc1cccc2ccccc12)*; Tpi = O=C(O)[C@@H]1Cc2c([nH]c3ccccc23)CN1; Phe(4-Cl) = N[C@@H](Cc1ccc(Cl)cc1)C(=O)O; Glutaryl = O=C(CCCC(=O)[*:2])[*:1]; Isobutyryl = CC(C)C(=O)*; Nle = CCCC[C@H](N)C(=O)O; Abu = CC[C@H](N)C(=O)O; Aib = CC(C)(N)C(=O)O; X2 = O=C(CI)*

The values that follow come from patent US5550212A, “Analogues of hGH-RH(1-29)NH2 having antagonistic activity” (The Administrators of the Tulane Educational Fund, priority 1993, dated 1996).

This assay addresses T1, rat pituitary GH-RH receptors (Rattus norvegicus, UniProt Q02644).
T1 construct: from tissue; host or cells: rat anterior pituitary (male Sprague-Dawley), crude membranes
T1 sequence (Q02644 23-464): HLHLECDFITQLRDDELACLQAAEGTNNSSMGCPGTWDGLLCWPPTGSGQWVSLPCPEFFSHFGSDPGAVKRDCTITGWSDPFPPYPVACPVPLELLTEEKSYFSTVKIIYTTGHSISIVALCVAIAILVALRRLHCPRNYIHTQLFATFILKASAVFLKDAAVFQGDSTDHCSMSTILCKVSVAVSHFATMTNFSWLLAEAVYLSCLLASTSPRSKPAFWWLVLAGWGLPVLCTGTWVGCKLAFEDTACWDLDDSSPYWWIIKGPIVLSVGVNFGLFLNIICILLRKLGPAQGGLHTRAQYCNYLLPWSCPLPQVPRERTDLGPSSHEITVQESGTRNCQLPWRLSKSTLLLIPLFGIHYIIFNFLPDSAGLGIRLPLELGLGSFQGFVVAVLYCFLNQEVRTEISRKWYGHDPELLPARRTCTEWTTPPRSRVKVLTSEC
Put plainly: GH-RH binding assay, competitive binding on rat anterior pituitary membrane homogenates. The note with it: competition with labelled [His1,Nle27]hGH-RH(1-32)NH2. Here is the method:
GH-RH Binding Assay. A sensitive radioreceptor binding assay was developed to determine the binding characteristics of the antagonists of GH-RH (G. Halmos, A. V. Schally et al., Receptor 3, 87-97, 1993), hereby incorporated by reference. The assay is based on binding of labelled [His^1,Nle^27 ]hGH-RH(1-32)NH2 to rat anterior pituitary membrane homogenates. Iodinated derivatives of [His^1,Nle^27 ]hGH-RH(1-32)NH2 are prepared by the chloramine-T method (F. C. Greenwood et al., Biochemistry 89:114-123, 1963), hereby incorporated by reference. Pituitaries from male Sprague-Dawley rats (250-300 g) are used to prepare crude membranes. For saturation binding analyses, membrane homogenates are incubated with at least 6 concentrations of [His^1,^25 I-Tyr^10,Nle^27 ]hGH-RH(1-32)NH2, ranging from 0.005 to 0.35 nM in the presence or absence of excess unlabelled peptide (1 μM). The pellet is counted for radioactivity in a y-counter. The affinities of the antagonist peptides tested to rat pituitary GH-RH receptors are determined in competitive binding experiments. The final binding affinities are estimated by Ki (dissociation constant of the inhibitor-receptor complex) and are determined by the Ligand PC computer program of Munson and Rodbard as modified by McPherson. Relative affinities compared to [Ac-Tyr^1,D-Arg^2 ]hGH-RH(1-29)NH2, the Standard antagonist, are calculated as the ratio of Ki of the tested GH-RH antagonist to the Ki of the Standard antagonist.

Broadly, the Ki is the dissociation constant of the complex between target and ligand, obtained from inhibition or displacement. Low readings indicate tighter binding, high ones weaker binding. `CCCC[C@H](NC(=O)[C@@H](NC(=O)[C@H](CC(=O)O)NC(=O)[C@H](CCC(N)=O)NC(=O)[C@H](CC(C)C)NC(=O)[C@H](CC(C)C)NC(=O)[C@H](CCCCN)NC(=O)[C@H](CCCNC(=N)N)NC(=O)[C@H](C)NC(=O)[C@H](CO)NC(=O)[C@H](CC(C)C)NC(=O)[C@H](CCC(N)=O)NC(=O)[C@H](CC)NC(=O)[C@H](CC(C)C)NC(=O)[C@@H](NC(=O)[C@H](CCCCN)NC(=O)[C@H](CCCNC(=N)N)NC(=O)[C@H](Cc1ccc(O)cc1)NC(=O)[C@H](CO)NC(=O)[C@H](CC(N)=O)NC(=O)[C@@H](NC(=O)[C@H](Cc1ccc(Cl)cc1)NC(=O)[C@@H](NC(=O)[C@H](C)NC(=O)[C@H](CC(=O)O)NC(=O)[C@@H](CCCNC(=N)N)NC(=O)[C@H](Cc1ccc(O)cc1)NC(=O)Cc1cccc2ccccc12)[C@@H](C)CC)[C@@H](C)O)C(C)C)[C@@H](C)CC)C(=O)N[C@@H](CO)C(=O)N[C@@H](CCCNC(=N)N)C(N)=O` [Peptide 1, [Nac^0,D-Arg^2, Phe(pCl)^6,Abu^15, Nle^27]hGH-RH(1-29)NH2] ({Acetyl(1-naphthyl)}-Y[dR]DAI[Phe(4-Cl)]TNSYRKVL[Abu]QLSARKLLQDI[Nle]SR-NH2): the Ki worked out at 40 ± 10 pM. Turning to `CCCC[C@H](NC(=O)[C@@H](NC(=O)[C@H](CC(=O)O)NC(=O)[C@H](CCC(N)=O)NC(=O)[C@H](CC(C)C)NC(=O)[C@H](CC(C)C)NC(=O)[C@H](CCCCN)NC(=O)[C@H](CCCNC(=N)N)NC(=O)[C@H](C)NC(=O)[C@H](CO)NC(=O)[C@H](CC(C)C)NC(=O)[C@H](CCC(N)=O)NC(=O)[C@H](CC)NC(=O)[C@H](CC(C)C)NC(=O)[C@@H](NC(=O)[C@H](CCCCN)NC(=O)[C@H](CCCNC(=N)N)NC(=O)[C@H](Cc1ccc(O)cc1)NC(=O)[C@H](CO)NC(=O)[C@H](CC(N)=O)NC(=O)[C@@H](NC(=O)[C@H](Cc1ccc(Cl)cc1)NC(=O)[C@@H](NC(=O)[C@H](C)NC(=O)[C@H](CC(=O)O)NC(=O)[C@@H](CCCNC(=N)N)NC(=O)[C@H](Cc1c[nH]cn1)NC(=O)Cc1cccc2ccccc12)[C@@H](C)CC)[C@@H](C)O)C(C)C)[C@@H](C)CC)C(=O)N[C@@H](CO)C(=O)N[C@@H](CCCNC(=N)N)C(N)=O` [Peptide 5, [Nac^0 -His^1,D-Arg^2,Phe(pCl)^6,Abu^15, Nle^27]hGH-RH(1-29)NH2] ({Acetyl(1-naphthyl)}-H[dR]DAI[Phe(4-Cl)]TNSYRKVL[Abu]QLSARKLLQDI[Nle]SR-NH2), the Ki turned out to be 50 ± 10 pM. For `CCCC[C@H](NC(=O)[C@@H](NC(=O)[C@H](CC(=O)O)NC(=O)[C@H](CCC(N)=O)NC(=O)[C@H](CC(C)C)NC(=O)[C@H](CC(C)C)NC(=O)[C@H](CCCCN)NC(=O)[C@H](CCCNC(=N)N)NC(=O)[C@H](C)NC(=O)[C@H](CO)NC(=O)[C@H](CC(C)C)NC(=O)[C@H](CCC(N)=O)NC(=O)[C@H](CC)NC(=O)[C@H](CC(C)C)NC(=O)[C@@H](NC(=O)[C@H](CCCCN)NC(=O)[C@H](CCCNC(=N)N)NC(=O)[C@H](Cc1ccc(O)cc1)NC(=O)[C@H](CO)NC(=O)[C@H](CC(N)=O)NC(=O)[C@@H](NC(=O)[C@H](Cc1ccc(Cl)cc1)NC(=O)[C@@H](NC(=O)[C@H](C)NC(=O)[C@H](CC(=O)O)NC(=O)[C@@H](CCCNC(=N)N)NC(=O)[C@H](CCC(=O)O)NC(=O)C(C)C)[C@@H](C)CC)[C@@H](C)O)C(C)C)[C@@H](C)CC)C(=O)N[C@@H](CO)C(=O)N[C@@H](CCCNC(=N)N)C(N)=O` [Peptide 7] (Isobutyryl-E[dR]DAI[Phe(4-Cl)]TNSYRKVL[Abu]QLSARKLLQDI[Nle]SR-NH2) the value was 1350 ± 20 pM; for `CCCC[C@H](NC(=O)[C@@H](NC(=O)[C@H](CC(=O)O)NC(=O)[C@H](CCC(N)=O)NC(=O)[C@H](CC(C)C)NC(=O)[C@H](CC(C)C)NC(=O)[C@H](CCCCN)NC(=O)[C@H](CCCNC(=N)N)NC(=O)[C@H](C)NC(=O)[C@H](CO)NC(=O)[C@H](CC(C)C)NC(=O)[C@H](CCC(N)=O)NC(=O)[C@H](CC)NC(=O)[C@H](CC(C)C)NC(=O)[C@@H](NC(=O)[C@H](CCCCN)NC(=O)[C@H](CCCNC(=N)N)NC(=O)[C@H](Cc1ccc(O)cc1)NC(=O)[C@H](CO)NC(=O)[C@H](CC(N)=O)NC(=O)[C@@H](NC(=O)[C@H](Cc1ccc(Cl)cc1)NC(=O)[C@@H](NC(=O)[C@H](C)NC(=O)[C@H](CC(=O)O)NC(=O)[C@@H](CCCNC(=N)N)NC(=O)[C@H](CCC(=O)O)NC(=O)CI)[C@@H](C)CC)[C@@H](C)O)C(C)C)[C@@H](C)CC)C(=O)N[C@@H](CO)C(=O)N[C@@H](CCCNC(=N)N)C(N)=O` [Peptide 8] (X2-E[dR]DAI[Phe(4-Cl)]TNSYRKVL[Abu]QLSARKLLQDI[Nle]SR-NH2), 910 ± 10 pM; for `CCCC[C@H](NC(=O)[C@@H](NC(=O)[C@H](CC(=O)O)NC(=O)[C@H](CCC(N)=O)NC(=O)[C@H](CC(C)C)NC(=O)[C@H](CC(C)C)NC(=O)[C@H](CCCCN)NC(=O)[C@H](CCCNC(=N)N)NC(=O)[C@H](C)NC(=O)[C@H](CO)NC(=O)[C@H](CC(C)C)NC(=O)[C@H](CCC(N)=O)NC(=O)[C@H](CC)NC(=O)[C@H](CC(C)C)NC(=O)[C@@H](NC(=O)[C@H](CCCCN)NC(=O)[C@H](CCCNC(=N)N)NC(=O)[C@H](Cc1ccc(O)cc1)NC(=O)[C@H](CO)NC(=O)[C@H](CC(N)=O)NC(=O)[C@@H](NC(=O)[C@H](Cc1ccc(Cl)cc1)NC(=O)[C@@H](NC(=O)[C@H](C)NC(=O)[C@H](CC(=O)O)NC(=O)[C@@H](CCCNC(=N)N)NC(=O)[C@H](CCC(=O)O)NC(=O)Cc1cccc2ccccc12)[C@@H](C)CC)[C@@H](C)O)C(C)C)[C@@H](C)CC)C(=O)N[C@@H](CO)C(=O)N[C@@H](CCCNC(=N)N)C(N)=O` [Peptide 9] ({Acetyl(1-naphthyl)}-E[dR]DAI[Phe(4-Cl)]TNSYRKVL[Abu]QLSARKLLQDI[Nle]SR-NH2), 870 ± 100 pM. The same measure for `CCCC[C@H](NC(=O)[C@@H](NC(=O)[C@H](CC(=O)O)NC(=O)[C@H](CCC(N)=O)NC(=O)[C@H](CC(C)C)NC(=O)[C@H](CC(C)C)NC(=O)[C@H](CCCCN)NC(=O)[C@H](CCCNC(=N)N)NC(=O)[C@H](C)NC(=O)[C@H](CO)NC(=O)[C@H](CC(C)C)NC(=O)[C@H](CCC(N)=O)NC(=O)[C@H](CC)NC(=O)[C@H](CC(C)C)NC(=O)[C@@H](NC(=O)[C@H](CCCCN)NC(=O)[C@H](CCCNC(=N)N)NC(=O)[C@H](Cc1ccc(O)cc1)NC(=O)[C@H](CO)NC(=O)[C@H](CC(N)=O)NC(=O)[C@@H](NC(=O)[C@@H]1Cc2c([nH]c3ccccc23)CN1C(=O)[C@@H](NC(=O)[C@H](C)NC(=O)[C@H](CC(=O)O)NC(=O)[C@@H](CCCNC(=N)N)NC(=O)CCCC(=O)O)[C@@H](C)CC)[C@@H](C)O)C(C)C)[C@@H](C)CC)C(=O)N[C@@H](CO)C(=O)N[C@@H](CCCNC(=N)N)C(N)=O` [Peptide 12, [Glt^1,D-Arg^2,Tpi^6,Abu^15,Nle^27]hGH-RH(1-29)NH2] (Glutaryl-[dR]DAI[Tpi]TNSYRKVL[Abu]QLSARKLLQDI[Nle]SR-NH2): 300 ± 150 pM; for `CCCC[C@H](NC(=O)[C@@H](NC(=O)[C@H](CC(=O)O)NC(=O)[C@H](CCC(N)=O)NC(=O)[C@H](CC(C)C)NC(=O)[C@H](CC(C)C)NC(=O)[C@H](CCCCN)NC(=O)[C@H](CCCNC(=N)N)NC(=O)[C@H](C)NC(=O)[C@H](CO)NC(=O)[C@H](CC(C)C)NC(=O)[C@H](CCC(N)=O)NC(=O)[C@H](CC)NC(=O)[C@H](CC(C)C)NC(=O)[C@@H](NC(=O)[C@H](CCCCN)NC(=O)[C@H](CCCNC(=N)N)NC(=O)[C@H](Cc1ccc(O)cc1)NC(=O)[C@H](CO)NC(=O)C(C)(C)NC(=O)[C@@H](NC(=O)[C@H](Cc1ccccc1)NC(=O)[C@@H](NC(=O)[C@H](C)NC(=O)[C@H](CC(=O)O)NC(=O)[C@@H](CCCNC(=N)N)NC(=O)[C@H](Cc1ccc(O)cc1)NC(=O)C(C)C)[C@@H](C)CC)[C@@H](C)O)C(C)C)[C@@H](C)CC)C(=O)N[C@@H](CO)C(=O)N[C@@H](CCCNC(=N)N)C(N)=O` [Peptide 13, [Ibu^0,D-Arg^2,Aib^8,Abu^15,Nle^27]hGH-RH(1-29)NH2] (Isobutyryl-Y[dR]DAIFT[Aib]SYRKVL[Abu]QLSARKLLQDI[Nle]SR-NH2): 780 ± 60 pM.
